For one experiment, the system named is SK7 mouse ES cells. Nature of the experiment: Screening for β cell differentiation enhancer using SK7 mouse ES cells (Pdx1-GFP). Format: cell-based. As for the experimental part:
The SK7 mouse ES cells were differentiated into β cells basically according to the previous report (Nakashima et al., 2015). Briefly, the cells were seeded at 5,000 cells per well in CellBIND 384-well (CORNING, 3770) cell culture plate or at 20,000 cells per well in a 96-well plate (Sigma) coated with 0.2% gelatin. Then, the cells were cultured in medium 1 from days 1 to 5. Medium 1 consisted of DMEM (high glucose) (Life Technologies, 11965092) supplemented with 0.1 mM NEAA (Gibco, 11140-50), 2 mM L-glutamine (Nacalai, 16948-04), 100 U/mL penicillin-streptomycin (Nacalai, 26252-94), 0.01 mM β-mercaptoethanol (Sigma), 1% insulin-transferrin-selenium supplement (ITS: Life Technologies, 41400045), 0.25% Albumax (Thermo Fisher, 11020021), and 10 ng/mL recombinant human activin-A (R&D Systems, 338-AC). Subsequently, the cells were cultured for 1 day in medium 2 which consisted of medium 1 supplemented with 10 μM retinoic acid (Stemgent, 04-0021). On day 6, the medium was replaced with medium 3, and the culture was continued until day 12 in order to induce differentiation into β cells. Medium 3 consisted of DMEM (low glucose) (Life Technologies, 11885084) supplemented with 0.1 mM NEAA, 2 mM L-glutamine, 100 U/mL penicillin-streptomycin, 0.1 mM β-mercaptoethanol, 1% ITS, 0.25% Albumax, and 3 mM nicotinamide (Sigma-Aldrich, N0636-500G). A test compound was added on day 8, and the cells were fixed in 4% paraformaldehyde for analysis using a high-content imager.
A chemical library consisting of about 55,000 compounds was screened for a substance that induced β cell differentiation. […] Fluorescence images were quantified using Operetta high-content imaging system and Harmony image analysis software (PerkinElmer, Germany). The nuclei were identified by DAPI staining, and the positivity of antibody staining was determined from the fluorescence intensity of a cytoplasmic region surrounding the nucleus. The number of cells positive to both insulin and GFP was counted and normalized with the total number of DAPI-positive cells or a positive area. A median of quadruple data was calculated, and screening hits were defined as states in which the number of insulin- and GFP-positive cells was increased as compared with a DMSO control. […] The activity of the selected candidate compounds was further analyzed with Toe human iPS cell assay system in order to select a hit compound having effectiveness for both differentiation into mouse β cells and differentiation into human β cells. A compound was added as described above, and its effectiveness was evaluated from a mRNA expression level by q-PCR in triplet experiments. […]

For the next experiment, the system named is Toe human iPS cells. Nature of the experiment: Differentiation of Toe human iPS cells into iPS-β cells, monolayer culture, protocol #1. Type of experiment: cell-based. Particulars: treatment from later stage of stage 3 to initial stage of stage 5. As for the experimental part:
The Toe human iPS cells were seeded in CellBIND 6-well (CORNING, CLS3335) cell culture plate coated with synthemax II, and differentiated into primitive gut tube cells by the previously described method (Shahjalal et al., 2014). The cells were dissociated with TrypLE Select (Thermo Fisher, 12563011) and cryopreserved in BanBanker (Nippon genetics) at a density of 1.0 to 2.0×10^7 cells/mL until use. One day before compound addition, the cells were thawed in a medium for stage 3 (DMEM (high glucose), 0.25 μM SANT1 (Wako, 197-16351), 0.1 μM LDN193189 (Stemgent, 04-0074), 10 μM SB431542, 2 μM retinoic acid, 1% B27-free serum supplement (Life Technologies, 17504044), and seeded at 150,000 cells per well in CellBIND 96-well (Corning, 3340) cell culture plated coated with synthemax II. The cells were cultured for 1 day in a medium for stage 3 containing a test compound or a negative control (0.01% DMSO). The cells were further cultured for 2 days and 1 day in media for stages 4 and 5, respectively, containing the test compound or the negative control. On the next day, the cells were fixed in 4% paraformaldehyde for analysis using a high-content imager.

Structures are written as SMILES.

Consider `O=C1CCC(C(=O)Nc2ncc(-c3ccccc3)s2)n2cccc21` (stereo not shown) [Synthesis Example 1, 8-Oxo-N-(5-phenylthiazol-2-yl)-6,7-dihydro-5H-indolizine-5-carboxamide], for which the “number of Pdx1-GFP+Ins+ double-positive cells” value in the experiment with SK7 mouse ES cells (K-1 in combination with γ-secretase inhibitor LY411575) was “further enhanced increase”. For the same molecule, the “ratio of Pdx1-GFP+insulin+ double-positive cells” value in the experiment with SK7 mouse ES cells (dose-dependent, compound added on day 8) is given as “increased”. Further, the “expression of insulin 1” value with SK7 mouse ES cells (dose-dependent, mRNA normalized with Hprt1) is listed as “increased”. Further, the “differentiation into iPS-β cells (INS+ cells)” value with Toe human iPS cells is recorded as “enhanced differentiation into iPS-β cells”.

The record behind these values is patent publication US20220339260A1, “METHOD FOR PRODUCING INSULIN-PRODUCING CELL USING DIHYDROINDOLIZINONE DERIVATIVES” (TOKYO INSTITUTE OF TECHNOLOGY, priority 2019, published 2022).
